Experiments:
Type in all cases: in vivo
Aegilops tauschii [1] = assay: Soil sealing treatment pot experiment for controlling Aegilops tauschii (Example 1)
Excerpt: (§1) Referring to an article of Colby, S. R. i.e., Calculation of the synergistic and antagonistic response of herbicide combinations. Weeds 1967, 15, pp. 20-22 (which is incorporated herein in its entirety by reference), the theoretical value E0 of a given mixture of three active ingredients may be predicted according to the following equation, then evaluating whether there is synergy.
(§2) [formula] • wherein: • E0 is the theoretical fresh weight survival rate for the mixture of pyroxasulfone, chlorotoluron and […]; • X is the measured fresh weight survival rate for pyroxasulfone used alone in the same dosage as that in the mixture; • Y is the measured fresh weight survival rate for chlorotoluron used alone in the same dosage as that in the mixture; • Z is the measured fresh weight survival rate for mesosulfuron-methyl used alone in the same dosage as that in the mixture. • E is the measured fresh weight survival rate for the mixture of pyroxasulfone, chlorotoluron and mesosulfuron-methyl. • E0-E value is calculated to evaluate the combined effect of pyroxasulfone, chlorotoluron and mesosulfuron-methyl on the selected weeds.
(§3) In this example, the herbicidal activity of a mixture of pyroxasulfone, chlorotoluron and mesosulfuron-methyl for soil sealing treatment to control Aegilops tauschii is investigated by a pot experiment method under the conditions of a glass greenhouse. This example is carried out in accordance with “NY/T 1155.4-2006 Guidelines for Indoor Bioassay Tests of Pesticides, Herbicides Part 4: Activity Determination Tests, Stem and Leaf Spray Method”.
(§4) • Pyroxasulfone: pyroxasulfone (850 g/Kg, WG) from Adama Agan LTD. • Chlorotoluron: chlorotoluron (90 wt %, WG) from Adama Agan LTD. • Mesosulfuron-methyl: Sigma (30 g/L, OD) from Bayer AG. • Test location: Greenhouse of Institute of Plant Protection, Shandong Academy of Agricultural Sciences • Cultivation of test materials: The test soil is formed by mixing the 20 cm layer loam on the ground surface and the culture medium in a ratio of 3:1 as cultivation soil.
(§5) The test weeds are cultivated in a glass greenhouse at a temperature of 15-30° C. and natural light. A certain amount of Aegilops tauschil seeds are sown in a plastic pot with a diameter of 9 cm, covering with 1-2 mm soil, and putting them in an enamel dish filled with water. The bottom infiltration method is used to water them, waiting for the water to seep to the soil surface, and then transferring to a glass greenhouse for cultivation. The agents are applied on the second day after sowing Aegilops tauschii seeds.
(§6) For each active ingredient, the multiple dilution method is used to obtain the other five lower dosages from the highest dosage. A certain amount of agent is measured by pipette or balance, adding it directly to the water, and then diluting it to the required dosage by the multiple dilution method.
(§7) Spraying treatment: ASS-4 automatic control spraying system with a fan-shaped nozzle is used indoors to spray agent, the running speed is adjusted based on nozzle pressure, flow rate, etc. to spray 50 mL of chemical solution on the actual spray area of 1.1 m^2 (equivalent to 30 liters per mu), arranging the plastic pots to be processed on the spraying table evenly, and spraying evenly. The spraying pressure is 0.35 MPa, and the flow rate of the fan-shaped nozzle is 800 mL/min, spraying in order from low dosage to high dosage. Each treatment is repeated 3 times. After spraying, let it dry for one day, placing it in a glass greenhouse, and watering it regularly to keep moist.
Application time and frequency: the experiment is conducted on the second day after sowing Aegilops tauschii seeds, and the soil is evenly sprayed. The application time is Mar. 10, 2020, with one application.
Weed investigation method and time: after applying the agent, the symptoms of weed damage (such as growth inhibition, chlorosis, deformity, etc.) are recorded in detail. […]

Lolium multiflorum Lamk = assay: Soil sealing treatment pot experiment for controlling Lolium multiflorum Lamk (Example 2)
Aegilops tauschii [2] = assay: Soil sealing treatment pot experiment for controlling Aegilops tauschii, more mixing ratios (Example 3)
Excerpt: as §1, §2, §3, §4, §5, §6, §7
Weed investigation method and time: after applying the agent, the symptoms of weed damage (such as growth inhibition, chlorosis, deformity, etc.) are recorded in detail. After 35 days, the fresh weight of aerial part of the weeds in each treatment is weighed, and the measured fresh weight inhibition rate and the measured fresh weight survival rate for each treatment are calculated according to the following equations: […]

[3] = single active ingredient, summary of Table 2

With `Cn1nc(C(F)(F)F)c(CS(=O)(=O)C2=NOC(C)(C)C2)c1OC(F)F` [pyroxasulfone, 3-[(5-difluoromethoxy-1-methyl-3-trifluoromethylpyrazol-4-yl)methylsulfonyl]-4,5-dihydro-5,5-dimethyl-1,2-isoxazole] the “Measured fresh weight survival rate (%) - E” value (Aegilops tauschii [1]; 5.625 gai/ha, 35 days) was 101.3%, the “Measured fresh weight survival rate (%) - E” value (Aegilops tauschii [1]; 11.25 gai/ha, 35 days) was 97.4% and the “Measured fresh weight survival rate (%) - E” value (Aegilops tauschii [1]; 22.5 gai/ha, 35 days) was 98.7%. The “Measured fresh weight survival rate (%) - E” value (Aegilops tauschii [1]; 45 gai/ha, 35 days) was 79.22%, the “Measured fresh weight survival rate (%) - E” value (Aegilops tauschii [1]; 90 gai/ha, 35 days) was 75.32% and the “Measured fresh weight survival rate (%) - E” value (Aegilops tauschii [1]; 180 gai/ha, 35 days) was 54.55%. It also gave an inhibition at 5.625 g/ha (Aegilops tauschii [1]; Aegilops tauschii, soil, 840 h, 5.625 gai/ha, 35 days, read-out: Measured fresh weight inhibition rate (%)) of -1.3%, an inhibition at 11.25 g/ha (Aegilops tauschii [1]; Aegilops tauschii, soil, 840 h, 11.25 gai/ha, 35 days, read-out: Measured fresh weight inhibition rate (%)) of 2.6% and an inhibition at 22.5 g/ha (Aegilops tauschii [1]; Aegilops tauschii, soil, 840 h, 22.5 gai/ha, 35 days, read-out: Measured fresh weight inhibition rate (%)) of 1.3%. The inhibition at 45 g/ha (Aegilops tauschii [1]; Aegilops tauschii, soil, 840 h, 45 gai/ha, 35 days, read-out: Measured fresh weight inhibition rate (%)) was 20.8%, the inhibition at 90 g/ha (Aegilops tauschii [1]; Aegilops tauschii, soil, 840 h, 90 gai/ha, 35 days, read-out: Measured fresh weight inhibition rate (%)) was 24.7% and the inhibition at 180 g/ha (Aegilops tauschii [1]; Aegilops tauschii, soil, 840 h, 180 gai/ha, 35 days, read-out: Measured fresh weight inhibition rate (%)) was 45.5%. The “control effect on Aegilops tauschii” value (Aegilops tauschii [1]; [3]) was “certain effect”, the “Measured fresh weight survival rate (%) - E” value (Lolium multiflorum Lamk; 5.625 gai/ha, 35 days) was 69.23% and the “Measured fresh weight survival rate (%) - E” value (Lolium multiflorum Lamk; 11.25 gai/ha, 35 days) was 53.85%. For the same compound, the “Measured fresh weight survival rate (%) - E” value (Lolium multiflorum Lamk; 22.5 gai/ha, 35 days) was 51.65%, the “Measured fresh weight survival rate (%) - E” value (Lolium multiflorum Lamk; 45 gai/ha, 35 days) was 20.88% and the “Measured fresh weight survival rate (%) - E” value (Lolium multiflorum Lamk; 90 gai/ha, 35 days) was 0%. For the same compound, the “Measured fresh weight survival rate (%) - E” value (Lolium multiflorum Lamk; 180 gai/ha, 35 days) was 0%, the inhibition at 5.625 g/ha (Lolium multiflorum Lamk; Lolium multiflorum, soil, 840 h, 5.625 gai/ha, 35 days, read-out: Measured fresh weight inhibition rate (%)) was 30.8% and the inhibition at 11.25 g/ha (Lolium multiflorum Lamk; Lolium multiflorum, soil, 840 h, 11.25 gai/ha, 35 days, read-out: Measured fresh weight inhibition rate (%)) was 46.1%. The inhibition at 22.5 g/ha (Lolium multiflorum Lamk; Lolium multiflorum, soil, 840 h, 22.5 gai/ha, 35 days, read-out: Measured fresh weight inhibition rate (%)) was 48.4%, the inhibition at 45 g/ha (Lolium multiflorum Lamk; Lolium multiflorum, soil, 840 h, 45 gai/ha, 35 days, read-out: Measured fresh weight inhibition rate (%)) was 79.1% and the inhibition at 90 g/ha (Lolium multiflorum Lamk; Lolium multiflorum, soil, 840 h, 90 gai/ha, 35 days, read-out: Measured fresh weight inhibition rate (%)) was 100%. For the same compound, the inhibition at 180 g/ha (Lolium multiflorum Lamk; Lolium multiflorum, soil, 840 h, 180 gai/ha, 35 days, read-out: Measured fresh weight inhibition rate (%)) was 100%, the “effect on Lolium multiflorum Lamk” value (Lolium multiflorum Lamk; [3]) was “best effect” and the “Actual fresh weight survival rate (%) - E” value (Aegilops tauschii [2]; 45 gai/ha) was 75.0%. The “Actual fresh weight survival rate (%) - E” value (Aegilops tauschii [2]; 90 gai/ha) was 51.7%, the “Actual fresh weight survival rate (%) - E” value (Aegilops tauschii [2]; 180 gai/ha) was 34.5% and the inhibition at 45 g/ha (Aegilops tauschii [2]; Aegilops tauschii, soil, 45 gai/ha, read-out: Actual fresh weight inhibition rate %) was 25%. For the same compound, the inhibition at 90 g/ha (Aegilops tauschii [2]; Aegilops tauschii, soil, 90 gai/ha, read-out: Actual fresh weight inhibition rate %) was 48.3% and the inhibition at 180 g/ha (Aegilops tauschii [2]; Aegilops tauschii, soil, 180 gai/ha, read-out: Actual fresh weight inhibition rate %) was 65.5%.
